This assay concerns the target T1, cellular PARG (Homo sapiens, UniProt Q86W56).
T1 construct: endogenous in cells; host or cells: HeLa
Kind of assay: Nuclear PAR accumulation assay (immunofluorescence high-content imaging, MMS-treated HeLa cells). The settings on record: 1 hour compound then MMS 50 μg/mL for an additional hour. Format: cell-based. The essentials: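 HeLa cells pretreated with compound for 1 h at 37° C, then given 50 μg/mL MMS for another hour. After methanol fixation, PAR was immunostained with DAPI nuclear counterstain; per-nucleus intensity and percent PAR-positive cells were imaged at 20× (≥1,000 cells/well). IC50 from four-parameter logistic fit.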

Molecules are shown by their SMILES.

Broadly, the IC50 is the concentration needed to halve the response being measured. A lower IC50 goes with greater potency.

T1 sequence (Q86W56 whole entry): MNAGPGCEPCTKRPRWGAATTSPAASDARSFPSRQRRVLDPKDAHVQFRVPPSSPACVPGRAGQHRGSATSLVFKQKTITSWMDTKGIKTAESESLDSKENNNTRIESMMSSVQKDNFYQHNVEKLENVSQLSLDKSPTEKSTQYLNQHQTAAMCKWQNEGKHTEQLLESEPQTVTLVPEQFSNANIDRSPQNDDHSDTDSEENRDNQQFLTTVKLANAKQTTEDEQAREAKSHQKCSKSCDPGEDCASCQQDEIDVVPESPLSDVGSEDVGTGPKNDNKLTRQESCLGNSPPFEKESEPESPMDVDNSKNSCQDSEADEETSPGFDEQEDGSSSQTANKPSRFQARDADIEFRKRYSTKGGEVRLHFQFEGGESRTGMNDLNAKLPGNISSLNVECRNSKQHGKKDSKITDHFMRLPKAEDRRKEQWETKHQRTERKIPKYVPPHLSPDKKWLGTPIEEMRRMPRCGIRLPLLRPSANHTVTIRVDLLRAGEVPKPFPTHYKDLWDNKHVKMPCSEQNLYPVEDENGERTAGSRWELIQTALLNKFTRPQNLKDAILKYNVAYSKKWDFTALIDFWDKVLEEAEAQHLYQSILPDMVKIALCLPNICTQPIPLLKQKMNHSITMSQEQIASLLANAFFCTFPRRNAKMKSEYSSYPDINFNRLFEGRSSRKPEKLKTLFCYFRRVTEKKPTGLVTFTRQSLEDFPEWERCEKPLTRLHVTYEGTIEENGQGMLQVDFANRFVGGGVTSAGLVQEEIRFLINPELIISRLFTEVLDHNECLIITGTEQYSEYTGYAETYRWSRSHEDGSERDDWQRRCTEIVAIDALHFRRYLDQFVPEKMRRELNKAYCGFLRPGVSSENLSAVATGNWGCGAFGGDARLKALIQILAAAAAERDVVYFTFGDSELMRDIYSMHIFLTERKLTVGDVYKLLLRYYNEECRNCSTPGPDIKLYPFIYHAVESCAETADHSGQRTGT

For `CN1C(=O)c2cc(S(=O)(=O)NC3(C)CC3)ccc2N2C1=NCC2C#Cc1ccc(C#N)nc1` (stereo not shown) [Example 202, 1-((6-cyanopyridin-3-yl)ethynyl)-4-methyl-N-(1-methylcyclopropyl)-5-oxo-1,2,4,5-tetrahydroimidazo[1,2-a]quinazoline-7-sulfonamide], the IC50 was less than 100 nM.

In turn, `Cc1ccc(C#CC2CN=C3N(C)C(=O)c4cc(S(=O)(=O)NC5(C)CC5)ccc4N32)cn1` (stereo not shown) [Example 203, 4-methyl-N-(1-methylcyclopropyl)-1-((6-methylpyridin-3-yl)ethynyl)-5-oxo-1,2,4,5-tetrahydroimidazo[1,2-a]quinazoline-7-sulfonamide] gave a concentration for half-maximal inhibition (IC50) of less than 100 nM. Compound `COc1ccc(C#CC2CN=C3N(C)C(=O)c4cc(S(=O)(=O)NC5(C)CC5)ccc4N32)cn1` (stereo not shown) [Example 204, 1-((6-methoxypyridin-3-yl)ethynyl)-4-methyl-N-(1-methylcyclopropyl)-5-oxo-1,2,4,5-tetrahydroimidazo[1,2-a]quinazoline-7-sulfonamide] returned a 50% inhibitory concentration (IC50) of less than 100 nM.

`CCN1C(=O)c2cc(S(=O)(=O)NC3(C)CC3)ccc2N2C1=NC[C@H]2C#Cc1cnn2c1OCC(NC)C2` (stereo partly drawn) [Example 205, (1R)-4-ethyl-1-((6-(methylamino)-6,7-dihydro-5H-pyrazolo[5,i-b][1,3]oxazin-3-yl)ethynyl)-N-(1-methylcyclopropyl)-5-oxo-1,2,4,5-tetrahydroimidazo[1,2-a]quinazoline-7-sulfonamide] displayed an IC50 of 100 to 1000 nM.

With `CCN1C(=O)c2cc(S(=O)(=O)NC3(C)CC3)ccc2N2C1=NC[C@H]2C#Cc1cnc2cc(C#N)cnn12` [Example 206, (R)-1-((7-cyanoimidazo[1,2-b]pyridazin-3-yl)ethynyl)-4-ethyl-N-(1-methylcyclopropyl)-5-oxo-1,2,4,5-tetrahydroimidazo[1,2-a]quinazoline-7-sulfonamide], the concentration for half-maximal inhibition (IC50) is less than 100 nM. With `CCn1nccc1C#C[C@@H]1CN=C2N(Cc3cnn(C)c3)C(=O)c3cc(S(=O)(=O)NC4(C)CC4)ccc3N21` [Example 207, (R)-1-((1-ethyl-1H-pyrazol-5-yl)ethynyl)-4-((1-methyl-1H-pyrazol-4-yl)methyl)-N-(1-methylcyclopropyl)-5-oxo-1,2,4,5-tetrahydroimidazo[1,2-a]quinazoline-7-sulfonamide], the 50% inhibitory concentration (IC50) is less than 100 nM. In turn, `CCN1C(=O)c2cc(S(=O)(=O)NC3(C)CC3)ccc2N2C1=NC[C@H]2C#Cc1c2ncccc2nn1C` [Example 208, (R)-4-ethyl-1-((2-methyl-2H-pyrazolo[4,3-b]pyridin-3-yl)ethynyl)-N-(1-methylcyclopropyl)-5-oxo-1,2,4,5-tetrahydroimidazo[1,2-a]quinazoline-7-sulfonamide] displayed an IC50 of less than 100 nM. Turning to `CN1C(=O)c2cc(S(=O)(=O)NC3(C)CC3)ccc2N2C1=NCC2C#Cc1cnc2cc(C(F)(F)F)cnn12` (stereo not shown) [Example 209, 4-methyl-N-(1-methylcyclopropyl)-5-oxo-1-((7-(trifluoromethyl)imidazo[1,2-b]pyridazin-3-yl)ethynyl)-1,2,4,5-tetrahydroimidazo[1,2-a]quinazoline-7-sulfonamide], the concentration for half-maximal inhibition (IC50) is less than 100 nM. On to `Cn1cc(CN2C(=O)c3cc(S(=O)(=O)NC4(C)CC4)ccc3N3C2=NC[C@H]3C#Cc2ccnn2C(F)F)cn1` [Example 210, (R)-1-((1-(difluoromethyl)-1H-pyrazol-5-yl)ethynyl)-4-((1-methyl-1H-pyrazol-4-yl)methyl)-N-(1-methylcyclopropyl)-5-oxo-1,2,4,5-tetrahydroimidazo[1,2-a]quinazoline-7-sulfonamide], for which the IC50 is less than 100 nM. The result for `[2H]C([2H])([2H])n1nccc1C#C[C@@H]1CN=C2N(Cc3cnn(C)c3)C(=O)c3cc(S(=O)(=O)NC4(C)CC4)ccc3N21` [Example 211, (R)-4-((1-methyl-1H-pyrazol-4-yl)methyl)-1-((1-(methyl-d3)-1H-pyrazol-5-yl)ethynyl)-N-(1-methylcyclopropyl)-5-oxo-1,2,4,5-tetrahydroimidazo[1,2-a]quinazoline-7-sulfonamide] reads less than 100 nM.

Source of the values: patent US20260285875A1, “INHIBITORS OF PARG” (858 Therapeutics, Inc., priority 2023, published 2026).
